Laboratory results reported in ChEMBL document CHEMBL4007419, “Discovery of hyaluronidase inhibitors from natural products and their mechanistic characterization under DMSO-perturbed assay conditions” (Bioorg Med Chem Lett, 2017).
pIC50: −log10 of the molar value. Active and inactive are the calls of the source. No cut-off for these calls is given here.

Legend:
[1] = Inhibition of hyaluronidase (unknown origin) using hyaluronic acid as substrate preincubated for 20 mins followed by substrate addition measured after 40 mins by colorimetric method; design: species or system Homo sapiens
[2] = Inhibition of hyaluronidase (unknown origin) using hyaluronic acid as substrate preincubated for 20 mins followed by CaCl2 activation for 20 mins and subsequent substrate addition measured after 10 mins by colorimetric method; design: species or system Homo sapiens
[3] = species on record: Homo sapiens; assay: Ratio of IC50 for CaCl2 activated hyaluronidase (unknown origin) to IC50 for hyaluronidase (unknown origin) using hyaluronic acid as substrate preincubated for 20 mins followed by CaCl2 activation
[4] = Inhibition of CaCl2 activated hyaluronidase (unknown origin) using hyaluronic acid as substrate preincubated for 20 mins followed by substrate addition measured after 10 mins by colorimetric method; design: species or system Homo sapiens
[5] = Inhibition of CaCl2 activated hyaluronidase (unknown origin) using hyaluronic acid as substrate preincubated for 20 mins followed by substrate addition measured after 10 mins in presence of Triton-X-100 by colorimetric method; design: species or system Homo sapiens
[6] = species on record: Homo sapiens; assay: Inhibition of CaCl2 activated hyaluronidase (unknown origin) up to 400 uM using hyaluronic acid as substrate preincubated for 20 mins followed by substrate addition measured after 10 mins in presence of up to 15% DMSO by colorimetric method
[7] = species on record: Homo sapiens; assay: Inhibition of CaCl2 activated hyaluronidase (unknown origin) up to 3000 uM using hyaluronic acid as substrate preincubated for 20 mins followed by substrate addition measured after 10 mins in presence of up to 21% DMSO by colorimetric method
[8] = species on record: Homo sapiens; assay: Inhibition of CaCl2 activated hyaluronidase (unknown origin) up to 4000 uM using hyaluronic acid as substrate preincubated for 20 mins followed by substrate addition measured after 10 mins in presence of up to 20% DMSO by colorimetric method
[9] = Inhibition of CaCl2 activated hyaluronidase (unknown origin) using hyaluronic acid as substrate preincubated for 20 mins followed by substrate addition measured after 10 mins in presence of dithiothreitol by colorimetric method; design: species or system Homo sapiens
[10] = species on record: Homo sapiens; assay: Non-competitive inhibition of hyaluronidase (unknown origin) up to 1000 um using hyaluronic acid as substrate preincubated for 20 mins followed by substrate addition measured after 10 mins by Lineweaver-Burk plot analysis

For `CC1(C)CC[C@]2(C(=O)O[C@@H]3O[C@H](CO)[C@@H](O)[C@H](O)[C@H]3O)CC[C@]3(C)C(=CC[C@@H]4[C@@]5(C)CC[C@H](O[C@@H]6O[C@H](C(=O)O)[C@@H](O[C@@H]7O[C@@H](CO)[C@H](O)[C@H]7O)[C@H](O)[C@H]6O)C(C)(C)[C@@H]5CC[C@]43C)[C@@H]2C1`, the pIC50 [1] was 4.62, the pIC50 [2] was 4.52 and the Ratio IC50 [3] was 2.5. The pIC50 [4] was 4.10, the pIC50 [5] was 3.72 and the inhibition [6] was “inactive”.

With `O=C(O[C@@H]1Cc2c(O)cc(O)cc2O[C@@H]1c1cc(O)c(O)c(O)c1)c1cc(O)c(O)c(O)c1` the inhibition [7] was “Active”.

For `Oc1cc(O)c2c(c1)O[C@H](c1ccc(O)c(O)c1)[C@@H](O)C2`, the inhibition [8] was “Active”.

Compound `Oc1cc(O)c2c(c1)O[C@@H](c1ccc(O)c(O)c1)[C@H](O)C2` [(-)-CATECHIN] has a pIC50 [1] of 2.96.

`Oc1cc(O)c2c(c1)O[C@H](c1ccc(O)c(O)c1)[C@H](O)C2` [(-)-EPICATECHIN] gave a pIC50 [1] of 3.09, a pIC50 [9] of 3.09 and a pIC50 [2] of 3.16. The inhibition [10] was “Active”, the inhibition [7] was “Active” and the pIC50 [4] was 3.10. For the same compound, the pIC50 [5] was 3.13.

For `O=C(O)[C@H]1O[C@@H](Oc2cc3oc(-c4ccccc4)cc(=O)c3c(O)c2O)[C@H](O)[C@@H](O)[C@@H]1O` [BAICALIN], the pIC50 [1] was 3.30.

`CC1(C)CC[C@]2(C(=O)O[C@@H]3O[C@H](CO)[C@@H](O)[C@H](O)[C@H]3O)CC[C@]3(C)C(=CC[C@@H]4[C@@]5(C)CC[C@H](O[C@@H]6O[C@H](C(=O)O)[C@@H](O)[C@H](O)[C@H]6O[C@@H]6O[C@H](CO)[C@@H](O)[C@H](O)[C@H]6O)C(C)(C)[C@@H]5CC[C@]43C)[C@@H]2C1` [GINSENOSIDE R0] showed a pIC50 [1] of 4.47.

`CC1(C)[C@@H](O[C@H]2O[C@H](C(=O)O)[C@@H](O)[C@H](O)[C@H]2O[C@@H]2O[C@H](C(=O)O)[C@@H](O)[C@H](O)[C@H]2O)CC[C@]2(C)[C@H]3C(=O)C=C4[C@@H]5C[C@@](C)(C(=O)O)CC[C@]5(C)CC[C@@]4(C)[C@]3(C)CC[C@@H]12` [GLYCYRRHIZIN] showed a pIC50 [1] of 5.07.
